# Laboratory results taken from PMC6009879, “Open saccharin-based secondary sulfonamides as potent and selective inhibitors of cancer-related carbonic anhydrase IX and XII isoforms” (Journal of Enzyme Inhibition and Medicinal Chemistry, 2016).
# What was measured:
# Assay type in all cases: biochemical
# hCA XII = molecular target: T1, hCA XII (Homo sapiens, UniProt O43570); experiment: stopped-flow CO2 hydrase assay, hCA XII; conditions: recombinant hCA XII; mean from 3 different assays, errors ±5–10%
# T1 construct: made in house
# Protocol: (§1) An applied photophysics stopped-flow instrument has been used for assaying the CA-catalyzed CO2 hydration activity. Phenol red (0.2 mM) has been used as indicator, working at the absorbance maximum of 557 nm, with 20 mM Hepes (pH 7.5, for α-CAs) as buffer, and 20 mM NaClO4 (for maintaining constant the ionic strength), following the initial rates of the CA-catalyzed CO2 hydration reaction for a period of 10–100 s. The CO2 concentrations ranged from 1.7 to 17 mM for the determination of the kinetic parameters and inhibition constants. […] The uncatalyzed rates were determined in the same manner and subtracted from the total observed rates. Stock solutions of each inhibitor (1 µM) were prepared in distilled-deionized water and dilutions up to 0.1 nM were done thereafter with the assay buffer. […] The inhibition constants were obtained by non-linear least-squares methods using PRISM 3 and the Cheng–Prusoff equation, and represent the average from at least three different determinations. All recombinant CA isoforms were obtained in-house as previously reported[38]^,[39].
# hCA I = molecular target: T2, hCA I (Homo sapiens, UniProt P00915); experiment: stopped-flow CO2 hydrase assay, hCA I; conditions: recombinant hCA I; mean from 3 different assays, errors ±5–10%
# T2 construct: made in house
# Protocol: as §1
# hCA IX = molecular target: T3, hCA IX (Homo sapiens, UniProt Q16790); experiment: stopped-flow CO2 hydrase assay, hCA IX; conditions: recombinant hCA IX; mean from 3 different assays, errors ±5–10%
# T3 construct: made in house
# Protocol: as §1
# hCA II = molecular target: T4, hCA II (Homo sapiens, UniProt P00918); experiment: stopped-flow CO2 hydrase assay, hCA II; conditions: recombinant hCA II; mean from 3 different assays, errors ±5–10%
# T4 construct: made in house
# Protocol: as §1
# T1 sequence (O43570 25-354): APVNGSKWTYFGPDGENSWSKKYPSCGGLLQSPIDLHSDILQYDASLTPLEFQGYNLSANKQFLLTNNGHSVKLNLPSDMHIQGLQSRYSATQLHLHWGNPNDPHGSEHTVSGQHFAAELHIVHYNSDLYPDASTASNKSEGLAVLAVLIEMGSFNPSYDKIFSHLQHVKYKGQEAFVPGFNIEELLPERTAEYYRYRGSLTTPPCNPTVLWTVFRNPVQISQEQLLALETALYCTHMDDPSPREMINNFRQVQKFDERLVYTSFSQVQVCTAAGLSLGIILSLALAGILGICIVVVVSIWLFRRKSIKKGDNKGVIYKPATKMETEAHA
# T2 sequence (P00915 whole entry): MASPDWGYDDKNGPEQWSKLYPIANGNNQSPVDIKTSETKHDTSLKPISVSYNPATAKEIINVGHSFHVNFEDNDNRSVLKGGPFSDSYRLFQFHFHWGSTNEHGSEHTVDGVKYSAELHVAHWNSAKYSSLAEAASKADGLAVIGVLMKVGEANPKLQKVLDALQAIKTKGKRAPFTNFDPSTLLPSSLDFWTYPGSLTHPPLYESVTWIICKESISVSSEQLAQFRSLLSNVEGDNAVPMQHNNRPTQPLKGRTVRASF
Ki (hCA XII) [nM],Ki (hCA I) [nM],Ki (hCA IX) [nM],Ki (hCA II) [nM],Structure (SMILES)
345,> 10000,294,> 10000,"O=S(=O)(NCc1cccc2ccccc12)c1ccccc1CO [Compound 19, 2-(Hydroxymethyl)-N-(naphthalen-1-ylmethyl)benzenesulfonamide]"
54,> 10000,20,> 10000,"O=[N+]([O-])c1ccc(CNS(=O)(=O)c2ccccc2CO)cc1 [Compound 13, 2-(Hydroxymethyl)-N-(4-nitrobenzyl)benzenesulfonamide]"
48,> 10000,154,> 10000,"O=S(=O)(NCc1ccc(Cl)cc1)c1ccccc1CO [Compound 15, N-(4-chlorobenzyl)-2-(hydroxymethyl)benzenesulfonamide]"
432,> 10000,145,> 10000,"O=S(=O)(NCc1ccc(Br)cc1)c1ccccc1CO [Compound 16, N-(4-bromobenzyl)-2-(hydroxymethyl)benzenesulfonamide]"
45,> 10000,296,> 10000,"O=S(=O)(NCc1c(F)cccc1F)c1ccccc1CO [Compound 17, N-(2,6-difluorobenzyl)-2-(hydroxymethyl)benzenesulfonamide]"
63,> 10000,26,> 10000,"O=S(=O)(NCc1ccc(F)cc1)c1ccccc1CO [Compound 14, N-(4-fluorobenzyl)-2-(hydroxymethyl)benzenesulfonamide]"
40,> 10000,298,> 10000,"O=S(=O)(NCc1ccc(Cl)c(Cl)c1)c1ccccc1CO [Compound 18, N-(3,4-dichlorobenzyl)-2-(hydroxymethyl)benzenesulfonamide]"
64,> 10000,224,> 10000,"O=S(=O)(NCC(O)c1ccccc1)c1ccccc1CO (stereo not drawn) [Compound 20, N-(2-hydroxy-2-phenylethyl)-2-(hydroxymethyl)benzenesulfonamide]"
5.7,> 10000,120,> 10000,"Cc1ccc(CNS(=O)(=O)c2ccccc2CO)cc1 [Compound 10, 2-(Hydroxymethyl)-N-(4-methylbenzyl)benzenesulfonamide]"
7.2,> 10000,253,> 10000,"O=S(=O)(NCc1ccc(C(F)(F)F)cc1)c1ccccc1CO [Compound 11, 2-(Hydroxymethyl)-N-(4-(trifluoromethyl)benzyl)benzenesulfonamide]"
355,> 10000,31,> 10000,"COc1cccc(C(O)CNS(=O)(=O)c2ccccc2CO)c1 (stereo not drawn) [Compound 21, N-(2-hydroxy-2-(3-methoxyphenyl)ethyl)-2-(hydroxymethyl)benzenesulfonamide]"
57,> 10000,126,> 10000,"N#Cc1ccc(CNS(=O)(=O)c2ccccc2CO)cc1 [Compound 12, N-(4-cyanobenzyl)-2-(hydroxymethyl)benzenesulfonamide]"

# The next lines start with the molecule.
Structure (SMILES),Ki (hCA XII) [nM],Ki (hCA I) [nM],Ki (hCA IX) [nM],Ki (hCA II) [nM]
"Cc1ccccc1CNS(=O)(=O)c1ccccc1CO [Compound 1, 2-(Hydroxymethyl)-N-(2-methylbenzyl)benzenesulfonamide]",4.6,> 10000,218,> 10000
"Cc1cccc(CNS(=O)(=O)c2ccccc2CO)c1 [Compound 5, 2-(Hydroxymethyl)-N-(3-methylbenzyl)benzenesulfonamide]",4.3,> 10000,223,> 10000
"O=S(=O)(NCc1cccc(Br)c1)c1ccccc1CO [Compound 9, N-(3-bromobenzyl)-2-(hydroxymethyl)-benzenesulfonamide]",64,> 10000,267,> 10000
"O=S(=O)(NCc1ccccc1C(F)(F)F)c1ccccc1CO [Compound 2, 2-(Hydroxymethyl)-N-(2-(trifluoromethyl)benzyl)benzenesulfonamide]",54,> 10000,200,> 10000
"O=S(=O)(NCc1cccc(C(F)(F)F)c1)c1ccccc1CO [Compound 6, 2-(Hydroxymethyl)-N-(3-(trifluoromethyl)benzyl)benzenesulfonamide]",4.4,> 10000,238,> 10000
"O=[N+]([O-])c1cccc(CNS(=O)(=O)c2ccccc2CO)c1 [Compound 7, 2-(Hydroxymethyl)-N-(3-nitrobenzyl)benzenesulfonamide]",382,> 10000,176,> 10000
"O=S(=O)(NCc1cccc(F)c1)c1ccccc1CO [Compound 8, N-(3-fluorobenzyl)-2-(hydroxymethyl)benzenesulfonamide]",247,> 10000,268,> 10000
"O=[N+]([O-])c1ccccc1CNS(=O)(=O)c1ccccc1CO [Compound 3, 2-(Hydroxymethyl)-N-(2-nitrobenzyl)benzenesulfonamide]",383,> 10000,104,> 10000
"O=S(=O)(NCc1ccccc1Br)c1ccccc1CO [Compound 4, N-(2-bromobenzyl)-2-(hydroxymethyl)benzenesulfonamide]",323,> 10000,113,> 10000
